For test [1], the target named is T1, squalene synthetase (Rattus norvegicus, UniProt Q02769).
T1 construct: from tissue; host or cells: liver of male SD rats (microsome fraction)
T1 sequence (Q02769 1-416): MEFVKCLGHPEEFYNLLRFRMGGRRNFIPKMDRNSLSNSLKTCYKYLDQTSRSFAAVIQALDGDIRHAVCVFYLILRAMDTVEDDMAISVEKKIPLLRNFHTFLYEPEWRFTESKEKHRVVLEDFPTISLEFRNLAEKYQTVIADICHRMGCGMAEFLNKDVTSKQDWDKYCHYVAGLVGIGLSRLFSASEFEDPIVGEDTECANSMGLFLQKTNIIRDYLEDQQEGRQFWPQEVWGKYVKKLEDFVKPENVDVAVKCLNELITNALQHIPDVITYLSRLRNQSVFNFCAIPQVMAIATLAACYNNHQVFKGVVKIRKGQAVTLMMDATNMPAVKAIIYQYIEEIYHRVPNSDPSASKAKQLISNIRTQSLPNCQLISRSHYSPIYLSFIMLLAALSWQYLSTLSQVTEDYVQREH
The experiment in a line: Squalene synthetase inhibitory activity, rat enzyme (rat liver microsome fraction). It counts as biochemical. To be noted: 5 μM [1-3H]farnesylpyrophosphoric acid, pH 7.4, 37° C., 45 minutes. The procedure:
(§1) Squalene synthetase inhibitory activity and cholesterol biosynthesis inhibitory activity of the compounds used in the present invention were determined by the following method.
(§2) Determination of squalene synthetase inhibitory activity
(§3) The squalene synthetase inhibitory activity was determined as follows by using the enzyme solutions shown in Experiments 1 and 2 below.
(§4) Each enzyme solution (Protein: 0.8 μg) prepared in Experiments 1 and 2 was added to a solution (total amount: 50 μl) containing 5 μM[1-^3 H]farnesylpyrophosphoric acid (Specific activity 25 μCi/μmole), 1 mM NADPH, 5 mM MgCl2, 6 mM glutathione, 100 mM potassium phosphate buffer (pH 7.4) and a drug to be tested (which was added as a solution thereof in water or DMSO). The mixture was allowed to react at 37° C. for 45 minutes. A mixture (150 μl) of chloroform and methanol (1:2) was added to stop the reaction. Then, chloroform (50 μl) and 3N sodium hydroxide solution (50 μl) were added. The chloroform layer (under layer, 50 μl) containing the reaction products in which the major component was squalene was mixed with toluene liquid scintillator (3 ml). The radioactivity was measured with a liquid scintillation counter.
(§5) The squalene synthetase inhibitory activity is indicated by the concentration (IC50, molarity(M)) which inhibits the radioactivity incorporated into the chloroform layer by 50%.
Preparation of rat enzyme
SD-Male rats (6 weeks old) were bled to death followed by removal of liver. The liver (ca. 10 g) was washed with ice-cooled physiological saline, homogenized in an ice-cooled buffer solution (15 ml) [100 mM potassium phosphate (pH 7.4), 15 mM nicotinamide, 2 mM MgCl2 ] and centrifuged at 10,000×g for 20 minutes (4° C.). The resulting supernatant was further centrifuged at 105,000×g for 90 minutes (4° C.). Then, the deposit was suspended in an ice-cooled 100 mM potassium phosphate buffer solution (pH 7.4) and centrifuged at 105,000×g for 90 minutes (4° C.) again. The deposit (microsome fraction) thus obtained was suspended in an ice-cooled 100 mM potassium phosphate buffer solution (pH 7.4) so that the protein concentration became about 40 mg/ml (measured with BCA Protein Assay Kit (Pias)), and the suspension was used as the enzyme solution.
A general note: Microsomes from liver hold many membrane-bound enzymes, among them those of drug oxidation.

Test [2] has as its target T2, squalene synthetase (Homo sapiens, UniProt P37268).
T2 construct: From the resulting sonicate, microsome fraction was obtained according to the same manner as that described in Experiment 1; endogenous in cells; host or cells: HepG2 human hepatoma cells (microsome fraction)
T2 sequence (P37268 1-417): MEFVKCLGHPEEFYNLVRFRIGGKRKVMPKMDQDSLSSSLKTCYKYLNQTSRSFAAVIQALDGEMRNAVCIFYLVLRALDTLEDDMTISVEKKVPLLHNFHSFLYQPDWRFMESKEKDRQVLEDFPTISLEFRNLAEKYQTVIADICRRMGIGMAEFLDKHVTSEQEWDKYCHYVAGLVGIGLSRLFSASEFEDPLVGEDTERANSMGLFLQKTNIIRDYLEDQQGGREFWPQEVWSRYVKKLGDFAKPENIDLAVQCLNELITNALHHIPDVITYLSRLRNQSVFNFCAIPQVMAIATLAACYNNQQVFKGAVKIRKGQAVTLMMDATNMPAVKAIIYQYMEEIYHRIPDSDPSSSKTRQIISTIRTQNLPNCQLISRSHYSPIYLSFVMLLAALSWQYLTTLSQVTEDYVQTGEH
The test can be described thus: Squalene synthetase inhibitory activity, human enzyme (HepG2 microsome fraction). It is filed as biochemical. The procedure: as §1, §2, §3, §4, §5
Preparation of human enzyme
Cultivation was carried out on Dulbecco modified Eagle medium containing 10% bovine fetal serum in the presence of 5% CO2 at 37° C. The human hepatoma cells HepG2 (ca. 1×10^9 cells) were suspended in an ice-cooled buffer solution (10 ml) [100 mM potassium phosphate (pH 7.4), 30 mM nicotinamide, 2.5 mM MgCl2 ], and the cells were crushed by ultrasonication (30 seconds, twice). From the resulting sonicate, microsome fraction was obtained according to the same manner as that described in Experiment 1. This microsome fraction was suspended in an ice-cooled 100 mM potassium phosphate buffer solution (pH 7.4) so that the protein concentration became about 4 mg/ml, and this suspension was used as the enzyme liquid.

[3] abbreviates: read-out: IC50, squalene synthetase inhibitory activity, Rat enzyme.
The mark [4] stands for this setting: human hepatoma HepG2 microsome fraction, 5 μM [1-3H]farnesylpyrophosphoric acid, pH 7.4, 37° C., 45 minutes, read-out: IC50, squalene synthetase inhibitory activity, Human enzyme.
The mark [5] stands for this setting: IC50, squalene synthetase inhibitory activity, Rat enzyme.

The structures appear in SMILES notation. Where a name gives a salt, the structure may show the parent alone. Read-outs that look alike come from different tables or passages of the source.

As for `CC(C)CCCC(C)CCCC(C)CCC(P(=O)(O)O)P(=O)(O)O` (stereo not shown) [Compound No. 108, disodium 4,8,12-trimethyltridecylidene-1,1-bisphosphonate], the half-inhibitory concentration (IC50) on squalene synthetase [1] (setting [3]) stood at 23 nM; at squalene synthetase [2] (setting [4]) it was 44 nM. `O=P(O)(O)C(O)(CCCCCSc1ccccn1)P(=O)(O)O` [Compound No. 109, trisodium 1-hydroxy-6-(2-pyridylthio)hexane-1,1-bisphosphonate]: the half-maximal inhibitory concentration (IC50) on squalene synthetase [1] (setting [3]) was found to be 1300 nM; on squalene synthetase [2] (setting [4]), 5800 nM. For `O=P(O)(O)C(NCCCCNc1ccccc1)P(=O)(O)O` [Compound No. 110, 4-(phenylamino)butylaminomethylene-1,1-bisphosphonic acid hydrochloride] the same measures were 44 nM and 61 nM. `CCOP(=O)(O)C(NC/C=C(\C)CC/C=C(\C)CCC=C(C)C)P(=O)(O)O` (stereo not shown) [Compound No. 111, (E,E)-farnesylaminomethylenebisphosphonic acid monoethyl ester monosodium salt]: the half-maximal inhibitory concentration (IC50) came out at 19 nM against squalene synthetase [1] (setting [5]) and 22 nM on squalene synthetase [2].

As to `CCOP(=O)(O)C(NCCCCCCSc1ccccc1)P(=O)(O)O` (stereo not shown) [Compound No. 113, 6-(phenylthio)hexylaminomethylenebisphosphonic acid monoethyl ester monosodium salt], the figures for the concentration for half-maximal inhibition (IC50) on squalene synthetase [1] (setting [5]) and on squalene synthetase [2] were 15 nM and 9.8 nM, respectively. For `O=P(O)(O)C(NCCCCSc1ccccc1)P(=O)(O)O` [compound 1], the values for the IC50 on squalene synthetase [1] (setting [3]) and at squalene synthetase [2] (setting [4]) were 18 nM and 8.9 nM, respectively. The matching figures for `O=P(O)(O)C(NCCCCSc1ccccn1)P(=O)(O)O` [compound 2]: 97 nM and 180 nM. The matching figures for `O=P(O)(O)C(NCCCCSc1ccncc1)P(=O)(O)O` [compound 3]: 210 nM and 300 nM.

`CCSCCCCNC(P(=O)(O)O)P(=O)(O)O` [compound 4]: the 50% inhibitory concentration (IC50) was found to be 370 nM on squalene synthetase [1] (setting [3]) and 1300 nM on squalene synthetase [2] (setting [4]).

For `CC(C)(C)SCCCCNC(P(=O)(O)O)P(=O)(O)O` [compound 5], the IC50 at squalene synthetase [1] (setting [3]) amounted to 760 nM; on squalene synthetase [2] (setting [4]), 9100 nM. In the case of `O=P(O)(O)C(NCCCCCSc1ccccc1)P(=O)(O)O` [compound 6], at squalene synthetase [1] (setting [3]), the IC50 is 5.7 nM. Regarding `O=P(O)(O)C(NCCCCCSC1CCCCC1)P(=O)(O)O` [compound 7], the IC50 on squalene synthetase [1] (setting [3]) turned out to be 19 nM; on squalene synthetase [2] (setting [4]), 18 nM. For `CCSCCCCCNC(P(=O)(O)O)P(=O)(O)O` [compound 8], the IC50 is 68 nM on squalene synthetase [1] (setting [3]) and 110 nM at squalene synthetase [2] (setting [4]). The matching figures for `O=P(O)(O)C(NCCCC[S+]([O-])c1ccccc1)P(=O)(O)O` (stereo not shown) [compound 9]: 9 nM and 6.3 nM.

Take `O=P(O)(O)C(NCCCCCOc1ccccc1)P(=O)(O)O` [compound 10]: the half-inhibitory concentration (IC50) came to 8.1 nM at squalene synthetase [1] (setting [3]) and 5.2 nM on squalene synthetase [2] (setting [4]).

As to `O=P(O)(O)C(NCCCCCCSc1ccccc1)P(=O)(O)O` [compound 11], the concentration for half-maximal inhibition (IC50) turned out to be 3.6 nM at squalene synthetase [1] (setting [3]) and 1.5 nM at squalene synthetase [2] (setting [4]). Regarding `O=P(O)(O)C(NCCCCS(=O)(=O)c1ccccc1)P(=O)(O)O` [compound 12], on squalene synthetase [1] (setting [3]), the IC50 came to 6400 nM.

`O=P(O)(O)C(NCCCCOc1ccc2c(c1)OCO2)P(=O)(O)O` [compound 13]: the values for the IC50 on squalene synthetase [1] (setting [3]) and on squalene synthetase [2] (setting [4]) were 19 nM and 14 nM, respectively. For the molecule `CCOP(=O)(OCC)C(NCCCCCc1ccccc1)P(=O)(OCC)OCC` [compound 14], the IC50 at squalene synthetase [1] (setting [3]) worked out at 560 nM; on squalene synthetase [2] (setting [4]), 450 nM.

Turning to `CCOP(=O)(OCC)C(NCCCCCSC1CCCCC1)P(=O)(OCC)OCC` [compound 15], the IC50 on squalene synthetase [1] (setting [3]) came to 4100 nM.

Regarding `O=P(O)(O)C(NCCSCCc1ccccc1)P(=O)(O)O` [compound 16], the IC50 turned out to be 20 nM on squalene synthetase [1] (setting [3]) and 9.7 nM on squalene synthetase [2] (setting [4]). The matching figures for `O=P(O)(O)C(NCCCSCc1ccccc1)P(=O)(O)O` [compound 17]: 18 nM and 12 nM. `CCOP(=O)(OCC)C(NCCSCCc1ccccc1)P(=O)(OCC)OCC` [compound 18]: the concentration for half-maximal inhibition (IC50) on squalene synthetase [1] (setting [3]) is 790 nM; on squalene synthetase [2] (setting [4]) it was 610 nM. For `CCOP(=O)(OCC)C(NCCCCCCSc1ccccc1)P(=O)(OCC)OCC` [compound 19] the same measures were 7500 nM and 6900 nM. For `O=P(O)(O)C(NC1CCCCCC1)P(=O)(O)O` [compound 20] the same measures were 940 nM and 6400 nM. For `O=P(O)(O)C(CCCc1ccccc1)P(=O)(O)O` [compound 21, 4-phenylbutylidene-1,1-bisphosphonic acid], the IC50 on squalene synthetase [1] (setting [3]) came out at 5500 nM. Turning to `CCOP(=O)(OCC)C(NCCCCCCSc1ccc(Cl)cc1)P(=O)(OCC)OCC` [compound 28], the IC50 at squalene synthetase [1] (setting [3]) was 6200 nM; at squalene synthetase [2] (setting [4]) it was 3200 nM. For `O=P(O)(O)C(NCCCCCC[S+]([O-])c1ccccc1)P(=O)(O)O` (stereo not shown) [compound 60, disodium 6-(phenylsulfinyl)hexylaminomethylenebisphosphonate] the same measures were 6 nM and 3.1 nM. For `O=P(O)(O)C(NCCCCCCCCCCSc1ccccc1)P(=O)(O)O` [compound 61] the same measures were 0.58 nM and 0.47 nM. Regarding `CC(C)CCCC(C)CCCC(C)CCNC(P(=O)(O)O)P(=O)(O)O` (stereo not shown) [compound 63], the IC50 on squalene synthetase [1] (setting [3]) worked out at 4.3 nM; on squalene synthetase [2] (setting [4]) it was 2.2 nM. In the case of `O=P(O)(O)C(NCCCCCC[S+]([O-])c1ccc2ccccc2c1)P(=O)(O)O` (stereo not shown) [compound 66], the values for the IC50 on squalene synthetase [1] (setting [3]) and on squalene synthetase [2] (setting [4]) were 4.7 nM and 4 nM, respectively. For the molecule `O=P(O)(O)C(NCCCCCCCCCCC[S+]([O-])c1ccccc1)P(=O)(O)O` (stereo not shown) [compound 72], the IC50 came out at 4.5 nM at squalene synthetase [1] (setting [3]) and 4.6 nM at squalene synthetase [2] (setting [4]).

Regarding `O=P(O)(O)C(NCCCCCCCCCSc1ncccn1)P(=O)(O)O` [compound 79], the half-maximal inhibitory concentration (IC50) is 8.8 nM at squalene synthetase [1] (setting [3]) and 7 nM at squalene synthetase [2] (setting [4]). For the molecule `O=P(O)(O)C(NCCCCCCSc1nnc2ccccn12)P(=O)(O)O` [compound 81], the values for the concentration for half-maximal inhibition (IC50) at squalene synthetase [1] (setting [3]) and at squalene synthetase [2] (setting [4]) were 200 nM and 1800 nM, respectively. As to `O=P(O)(O)C(NCCCCCCSc1nc2ccccc2s1)P(=O)(O)O` [compound 83], the figures for the concentration for half-maximal inhibition (IC50) on squalene synthetase [1] (setting [3]) and at squalene synthetase [2] (setting [4]) were 4.3 nM and 8.4 nM, respectively. For `CC(C)=CCC/C(C)=C/CNC(P(=O)(O)O)P(=O)(O)O` [compound 86] the same measures were 27 nM and 35 nM. Consider `O=P(O)(O)C(NCCCCCSc1ccccc1)P(=O)(O)O` [compound 88], for which the IC50 at squalene synthetase [1] (setting [3]) came out at 13 nM. On the same count and under the same terms, as for `O=P(O)(O)C(NCCCCCCCCCCCCSc1ccccc1)P(=O)(O)O` [compound 89, monosodium 12-(phenylthio)dodecylaminomethylenebisphosphonate], the figure is 8.1 nM.

Usually IC50 stands for the concentration that gives 50% inhibition.

The record behind these values is US5624917A, “Method of inhibiting squalene synthetase” (Takeda Chemical Industries, Ltd., priority 1991, dated 1997).
